The record followed here is ChEMBL document CHEMBL6103637, “Additional Bioactive Silvestrol Analogs from the Roots of Aglaia perviridis Collected in Vietnam” (J Nat Prod, 2025).

Holding throughout (format): functional, cell-based
The subject of one experiment is OVCAR-3. Nature of the experiment: Cytotoxicity against human OVCAR-3 cells assessed as inhibition of cell viability incubated for 72 hrs by CellTiter-blue cell viability assay. The following applies: OVCAR-3, 72 h.
A further experiment concerns HT-29. Nature of the experiment: Cytotoxicity against human HT-29 cells assessed as inhibition of cell viability incubated for 72 hrs by CellTiter-blue cell viability assay. The following applies: HT-29, 72 h. Background: The colour change of resazurin is a common sign of viable cells or microbes.
The test system of the next experiment is MDA-MB-231. The experiment in a line: Cytotoxicity against human MDA-MB-231 cells assessed as inhibition of cell viability incubated for 72 hrs by CellTiter-blue cell viability assay. The following applies: MDA-MB-231, 72 h.
The subject of the next experiment is MDA-MB-435. The experiment in a line: Cytotoxicity against human MDA-MB-435 cells assessed as inhibition of cell viability incubated for 72 hrs by CellTiter-blue cell viability assay. The following applies: MDA-MB-435, 72 h.

In the case of `COC(=O)[C@H]1[C@@H](O)[C@@]2(O)c3c(OC)cc(O[C@@H]4O[C@@H]([C@@H](O)CO)CO[C@H]4OC)cc3O[C@@]2(c2ccc(OC)cc2)[C@@H]1c1ccccc1` [2'-EPISILVESTROL], the IC50 came to 2 nM with OVCAR-3, 3 nM with HT-29, 2 nM in the experiment on MDA-MB-231 and 2 nM in the experiment on MDA-MB-435.

For the compound `COC(=O)[C@H]1[C@@H](O)[C@@]2(O)c3c(OC)cc(O[C@@H]4O[C@@H]([C@@H](O)CO)CO[C@@H]4OC)cc3O[C@@]2(c2ccc(OC)cc2)[C@@H]1c1ccccc1`, the IC50 in the experiment with OVCAR-3 stood at 210 nM; with HT-29, 450 nM; in the experiment on MDA-MB-231 it was 210 nM; in the experiment on MDA-MB-435, 250 nM.

As for `COC(=O)[C@H]1[C@@H](O)[C@@]2(O)c3c(OC)cc(O[C@@H]4O[C@@H]([C@@H]5COC(C)(C)O5)CO[C@H]4OC)cc3O[C@@]2(c2ccc(OC)cc2)[C@@H]1c1ccccc1`, the half-inhibitory concentration (IC50) came to 38 nM in the experiment with OVCAR-3, 37 nM with HT-29, 20 nM in the experiment on MDA-MB-231 and 26 nM in the experiment with MDA-MB-435.

On to `COC(=O)[C@H]1[C@@H](O)[C@@]2(O)c3c(OC)cc(O[C@@H]4O[C@@H]([C@H](O)CO)CO[C@H]4OC)cc3O[C@@]2(c2ccc(OC)cc2)[C@@H]1c1ccccc1` [SILVESTROL], for which the IC50 with OVCAR-3 worked out at 2 nM; in the experiment on HT-29, 30 nM; with MDA-MB-231, 2 nM; with MDA-MB-435 it was 2 nM.

Take `COC(=O)[C@H]1[C@@H](O)[C@@]2(O)c3c(OC)cc(O[C@@H]4O[C@@H]([C@H](O)CO)CO[C@@H]4OC)cc3O[C@@]2(c2ccc(OC)cc2)[C@@H]1c1ccccc1`: the IC50 with OVCAR-3 was 210 nM; in the experiment on HT-29, 370 nM; in the experiment on MDA-MB-231, 240 nM; in the experiment with MDA-MB-435, 250 nM.

With `COC(=O)[C@H]1[C@@H](O)[C@@]2(O)c3c(OC)cc(O[C@@H]4O[C@@H]([C@H]5COC(C)(C)O5)CO[C@H]4OC)cc3O[C@@]2(c2ccc(OC)cc2)[C@@H]1c1ccccc1`, the concentration for half-maximal inhibition (IC50) in the experiment with OVCAR-3 amounted to 37 nM; in the experiment on HT-29, 20 nM; with MDA-MB-231, 260 nM; in the experiment with MDA-MB-435 it was 31 nM.

For `CC(=O)O[C@H]1C(=O)[C@@]2(C)[C@H]([C@H](OC(=O)c3ccccc3)[C@]3(O)C[C@H](OC(=O)[C@H](O)[C@@H](NC(=O)c4ccccc4)c4ccccc4)C(C)=C1C3(C)C)[C@]1(OC(C)=O)CO[C@@H]1C[C@@H]2O` [PACLITAXEL], the IC50 with OVCAR-3 is 12 nM; in the experiment with MDA-MB-435, 5 nM.

Usually IC50 stands for the point on the concentration scale where inhibition reaches its midpoint.
